# Data from patent publication US9096548B2, “Pyrazine amide compounds” (Boehringer Ingelheim International GmbH, priority 2013, dated 2015).
# pIC50: −log10 of the molar value. Where a name gives a salt, the structure may show the parent alone. Read-outs that look alike come from different tables or passages of the source.
# Molecular target: T1, ENaC (Epithelial Sodium Channel) (Mus musculus, UniProt Q61180+Q9WU38+Q9WU39)
# T1 construct: Mouse kidney M−1 cells were cultivated in DMEM; endogenous in cells; host or cells: Mouse kidney M-1 cells, cultivated with dexamethasone on transwell filters
# T1 sequence (Q61180 1-699): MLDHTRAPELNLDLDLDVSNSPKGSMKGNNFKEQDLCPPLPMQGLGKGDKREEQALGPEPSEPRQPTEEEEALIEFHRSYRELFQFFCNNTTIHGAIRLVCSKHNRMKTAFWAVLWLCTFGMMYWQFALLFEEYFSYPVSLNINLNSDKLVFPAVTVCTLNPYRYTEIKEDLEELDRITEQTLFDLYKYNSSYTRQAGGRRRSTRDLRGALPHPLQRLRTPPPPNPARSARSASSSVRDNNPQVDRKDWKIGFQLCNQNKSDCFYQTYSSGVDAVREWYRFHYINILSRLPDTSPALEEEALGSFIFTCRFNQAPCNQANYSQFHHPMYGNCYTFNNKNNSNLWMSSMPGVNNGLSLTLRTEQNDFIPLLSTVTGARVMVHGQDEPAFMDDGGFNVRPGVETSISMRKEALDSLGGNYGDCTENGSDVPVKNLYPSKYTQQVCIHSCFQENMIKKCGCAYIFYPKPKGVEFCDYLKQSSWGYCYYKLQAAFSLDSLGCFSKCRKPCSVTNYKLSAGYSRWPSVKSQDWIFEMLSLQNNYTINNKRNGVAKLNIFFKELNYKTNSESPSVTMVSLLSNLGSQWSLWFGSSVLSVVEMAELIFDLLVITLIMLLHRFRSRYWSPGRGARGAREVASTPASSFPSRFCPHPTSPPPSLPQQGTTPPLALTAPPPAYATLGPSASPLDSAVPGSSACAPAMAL
# T1 sequence (Q9WU38 1-638): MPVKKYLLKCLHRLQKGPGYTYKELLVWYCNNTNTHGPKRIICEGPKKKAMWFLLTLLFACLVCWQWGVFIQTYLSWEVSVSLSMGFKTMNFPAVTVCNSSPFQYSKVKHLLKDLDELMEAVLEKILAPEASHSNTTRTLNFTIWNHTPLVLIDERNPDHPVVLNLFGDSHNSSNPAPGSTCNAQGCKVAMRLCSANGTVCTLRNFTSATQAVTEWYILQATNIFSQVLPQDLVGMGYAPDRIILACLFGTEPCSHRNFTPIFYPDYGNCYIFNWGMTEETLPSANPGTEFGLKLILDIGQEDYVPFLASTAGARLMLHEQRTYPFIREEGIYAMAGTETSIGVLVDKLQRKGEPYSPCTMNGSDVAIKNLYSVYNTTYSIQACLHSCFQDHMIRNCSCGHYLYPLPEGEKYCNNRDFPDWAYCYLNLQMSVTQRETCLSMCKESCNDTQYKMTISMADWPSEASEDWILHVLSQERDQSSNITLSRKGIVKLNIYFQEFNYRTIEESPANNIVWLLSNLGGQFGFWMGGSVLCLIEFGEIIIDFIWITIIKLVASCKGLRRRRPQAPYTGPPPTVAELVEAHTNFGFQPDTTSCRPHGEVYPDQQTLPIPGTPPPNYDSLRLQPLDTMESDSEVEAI
# T1 sequence (Q9WU39 1-655): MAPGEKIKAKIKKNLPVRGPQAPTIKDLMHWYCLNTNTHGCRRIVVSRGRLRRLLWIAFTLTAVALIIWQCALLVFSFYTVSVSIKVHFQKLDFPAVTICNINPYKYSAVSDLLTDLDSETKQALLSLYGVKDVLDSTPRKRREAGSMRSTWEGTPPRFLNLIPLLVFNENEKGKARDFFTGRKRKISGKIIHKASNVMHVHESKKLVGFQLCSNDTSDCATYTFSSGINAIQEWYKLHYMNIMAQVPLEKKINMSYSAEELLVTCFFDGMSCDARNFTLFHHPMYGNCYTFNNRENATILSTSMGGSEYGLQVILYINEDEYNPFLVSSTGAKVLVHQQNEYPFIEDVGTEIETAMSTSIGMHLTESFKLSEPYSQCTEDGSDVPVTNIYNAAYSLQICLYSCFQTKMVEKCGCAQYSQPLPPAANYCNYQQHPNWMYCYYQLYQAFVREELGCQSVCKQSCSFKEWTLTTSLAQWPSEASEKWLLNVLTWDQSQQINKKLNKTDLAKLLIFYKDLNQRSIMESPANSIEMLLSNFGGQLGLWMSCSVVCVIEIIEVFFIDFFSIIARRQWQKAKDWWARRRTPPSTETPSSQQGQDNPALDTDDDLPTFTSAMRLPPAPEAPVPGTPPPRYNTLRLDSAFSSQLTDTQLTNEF
# Assay: Ussing Chamber assay (short circuit current, amiloride sensitive I_SC)
# Type: cell-based
# Conditions: Ussing chamber, mouse kidney M-1 cells, short circuit current, read-out: IC50; for IC50: value printed in the example text with μM
# Method in brief: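 Mouse kidney M-1 cells grown 10–12 days on filters with 5 μM dexamethasone, measured in Caco-2 transport buffer at 37° C under voltage clamp. Compound applied apically at 3 μM or 1-3-10 μM; 3 μM amiloride added at end. Short circuit current inhibition given as percent of amiloride effect or IC50.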
# [1] = compound added to the apical solution
pIC50 [1],Structure (SMILES),other results
7.82,CN1CCC(NC(=O)COc2ccc(CCC[N+]3(CCCc4ccc(OCC(=O)NC5CCN(C)CC5)cc4)CCC[C@H](NC(=O)c4nc(Cl)c(N)nc4N)C3)cc2)CC1 [Example 6.13],–
7.33,Nc1nc(N)c(C(=O)N[C@H]2CCC[N+](CCCc3ccc(OCC(=O)N4CCS(=O)(=O)CC4)cc3)(CCCc3ccc(OCC(=O)N4CCS(=O)(=O)CC4)cc3)C2)nc1Cl [Example 6.24],–
6.98,CN(CCC#N)C(=O)COc1ccc(CCC[N+]2(CCCc3ccc(OCC(=O)N(C)CCC#N)cc3)CCC[C@H](NC(=O)c3nc(Cl)c(N)nc3N)C2)cc1 [Example 6.29],–
7.35,COC(=O)COc1ccc(CCC[N+]2(CCCc3ccc(OCC(=O)OC)cc3)CCC[C@H](NC(=O)c3nc(Cl)c(N)nc3N)C2)cc1 [Example 6.11],–
7.68,Cn1cnc(CNC(=O)COc2ccc(CCC[N+]3(CCCc4ccc(OCC(=O)NCc5cn(C)cn5)cc4)CCC[C@H](NC(=O)c4nc(Cl)c(N)nc4N)C3)cc2)c1 [Example 6.40],–
7.30,CN(C)CCNC(=O)COc1ccc(CCC[N+]2(CCCc3ccc(OCC(=O)NCCN(C)C)cc3)CCCC(NC(=O)c3nc(Cl)c(N)nc3N)C2)cc1 (stereo not shown) [Example 6.5],–
7.51,CN(C)CCCNC(=O)COc1ccc(CCC[N+]2(CCCc3ccc(OCC(=O)NCCCN(C)C)cc3)CCCC(NC(=O)c3nc(Cl)c(N)nc3N)C2)cc1 (stereo not shown) [Example 6.7],–
6.85,COc1ccc(CCC[N+]2(Cc3ccccc3)CCCC(NC(=O)c3nc(Cl)c(N)nc3N)C2)cc1 (stereo not shown) [Example 3.7],–
8.40,Nc1nc(N)c(C(=O)N[C@H]2CCC[N+](CCCc3ccc(OCC(=O)NCCc4ccncc4)cc3)(CCCc3ccc(OCC(=O)NCCc4ccncc4)cc3)C2)nc1Cl [Example 6.52],–
8.40,COc1ccc(CCC[N+]2(CCCc3ccc(OC)cc3)CCC[C@H](NC(=O)c3nc(Cl)c(N)nc3N)C2)cc1 [Example 1.4],–
–,"COC(=O)C[C@H](C[N+](C)(CCCc1ccc(OC)cc1)CCCc1ccc(OC)cc1)NC(=O)c1nc(Cl)c(N)nc1N [Example 7.1, {(R)-2-[(3,5-Diamino-6-chloro-pyrazine-2-carbonyl)-amino]-3-methoxycarbonyl-propyl}-bis-[3-(4-methoxy-phenyl)-propyl]-methyl-ammonium chloride]",pIC50 (unit inferred): 5.89
–,"COc1ccc(CCC[N+]2(CC(=O)OC3CCCCC3)CCCC(NC(=O)c3nc(Cl)c(N)nc3N)C2)cc1 (stereo not shown) [Example 12.1, 1-Cyclohexyloxycarbonylmethyl-3-[(3,5-diamino-6-chloro-pyrazine-2-carbonyl)-amino]-1-[3-(4-methoxy-phenyl)-propyl]-piperidinium chloride]",IC50: 0.21 µM
7.74,Cn1cncc1CNC(=O)COc1ccc(CCC[N+]2(CCCc3ccc(OCC(=O)NCc4cncn4C)cc3)CCC[C@H](NC(=O)c3nc(Cl)c(N)nc3N)C2)cc1 [Example 6.41],–
–,"COC(=O)CNC(=O)c1ccc(CCC[N+]2(CCCc3ccc(OC)cc3)CCCC(NC(=O)c3nc(Cl)c(N)nc3N)C2)cc1 (stereo not shown) [Example 5.2, 3-[(3,5-Diamino-6-chloro-pyrazine-2-carbonyl)-amino]-1-{3-[4-(methoxycarbonylmethylcarbamoyl)-phenyl]-propyl}-1-[3-(4-methoxy-phenyl)-propyl]-piperidinium chloride]",IC50: 0.042 µM
6.29,COc1ccc(CCC[N+](C)(CCCc2ccc(OC)cc2)CC(C)(C)NC(=O)c2nc(Cl)c(N)nc2N)cc1 [Example 2.3],–
–,"Cn1ccnc1CNC(=O)COc1cccc(CCC[N+]2(CCCc3cccc(OCC(=O)NCc4nccn4C)c3)CCC[C@H](NC(=O)c3nc(Cl)c(N)nc3N)C2)c1 [Example 10.11, (S)-3-[(3,5-Diamino-6-chloro-pyrazine-2-carbonyl)-amino]-1,1-bis-[3-(3-{[(1-methyl-1H-imidazol-2-ylmethyl)-carbamoyl]-methoxy}-phenyl)-propyl]-piperidinium hydroxide]",pIC50 (unit inferred): 8.15
–,"COc1ccc(CCC[N+](C)(CCCc2ccc(OC)cc2)C[C@H](CC(=O)O)NC(=O)c2nc(Cl)c(N)nc2N)cc1 [Example 7.2, {(S)-3-Carboxy-2-[(3,5-diamino-6-chloro-pyrazine-2-carbonyl)-amino]-propyl}-bis-[3-(4-methoxy-phenyl)-propyl]-methyl-ammonium]",IC50: 1.38 µM
7.57,"COc1cccc(CCC[N+]2(CCCc3cccc(OC)c3)CCCC(NC(=O)c3nc(Cl)c(N)nc3N)C2)c1 (stereo not shown) [Example 10.2, 3-[(3,5-Diamino-6-chloro-pyrazine-2-carbonyl)-amino]-1,1-bis-[3-(3-methoxy-phenyl)-propyl]-piperidinium chloride]",–
7.01,Nc1nc(N)c(C(=O)N[C@H]2CCC[N+](CCCc3ccc(OCC(=O)N4CCN(CCO)CC4)cc3)(CCCc3ccc(OCC(=O)N4CCN(CCO)CC4)cc3)C2)nc1Cl [Example 6.54],–
7.38,COCCN(C)C(=O)COc1ccc(CCC[N+]2(CCCc3ccc(OCC(=O)N(C)CCOC)cc3)CCC[C@H](NC(=O)c3nc(Cl)c(N)nc3N)C2)cc1 [Example 6.16],–
8.40,Nc1nc(N)c(C(=O)N[C@H]2CCC[N+](CCCc3ccc(OCC(=O)NCc4ccncc4)cc3)(CCCc3ccc(OCC(=O)NCc4ccncc4)cc3)C2)nc1Cl [Example 6.64],–
7.55,CS(=O)(=O)CCNC(=O)COc1ccc(CCC[N+]2(CCCc3ccc(OCC(=O)NCCS(C)(=O)=O)cc3)CCC[C@H](NC(=O)c3nc(Cl)c(N)nc3N)C2)cc1 [Example 6.37],–
7.14,Nc1nc(N)c(C(=O)N[C@H]2CCC[N+](CCCc3ccc(OCC(=O)N4CCOCC4)cc3)(CCCc3ccc(OCC(=O)N4CCOCC4)cc3)C2)nc1Cl [Example 6.58],–
6.95,Nc1nc(N)c(C(=O)N[C@H]2CCC[N+](CCCc3ccc(OCC(=O)OCC4COCCN4)cc3)(CCCc3ccc(OCC(=O)OCC4COCCN4)cc3)C2)nc1Cl (stereo partly shown) [Example 6.42],–
6.80,"Nc1nc(N)c(C(=O)N[C@H]2CCC[N+](CCOc3ccccc3)(CCOc3ccccc3)C2)nc1Cl [Example 10.7, 3-[(3,5-Diamino-6-chloro-pyrazine-2-carbonyl)-amino]-1,1-bis-[2-phenoxy-ethyl]-piperidinium chloride]",–
–,"COC(=O)COc1ccc(CCC[N+]2(CCCc3ccc(OCC(=O)NCCN(C)C)cc3)CCCC(NC(=O)c3nc(Cl)c(N)nc3N)C2)cc1 (stereo not shown) [Example 8.1, 3-[(3,5-Diamino-6-chloro-pyrazine-2-carbonyl)-amino]-1-(3-{4-[(2-dimethylaminoethylcarbamoyl)-methoxy]-phenyl}-propyl)-1-[3-(4-methoxycarbonylmethoxy-phenyl)-propyl]-piperidinium chloride hydrochloride]",pIC50 (unit inferred): 7.07
8.05,Nc1nc(N)c(C(=O)N[C@H]2CCC[N+](CCCc3ccc(OCC(=O)NCCn4ccnc4)cc3)(CCCc3ccc(OCC(=O)NCCn4ccnc4)cc3)C2)nc1Cl [6.15],–
8.22,COc1ccc(CCC[N+]2(CCCc3ccccc3)CCCC(NC(=O)c3nc(Cl)c(N)nc3N)C2)cc1 (stereo not shown) [Example 3.5],–
